Measurements reported in PubChem BioAssay AID256 (DTP/NCI, 2004).
Several values for one entry are separate records, joined by “and”; a condition that tells them apart may be missing. Identical values can stand only once. Inconclusive results and toxic doses are left out. The calls were made as follows: active = survival T/C of 150% or more; inactive = T/C below 125% in these data.

System: CD2F1 mice, L1210 leukemia ip, survival T/C
Test: NCI In Vivo Anticancer Drug Screen. Data for tumor model L1210 Leukemia (intraperitoneal) in CD2F1 (CDF1) mice
Settings: higher = longer survival
Summary of the method: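 Activity against a transplanted murine tumor was judged by comparing the compound group with a vehicle group. The outcome in the treated animals was divided by that in the controls.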

[1] = endpoint: mean survival time, dose: 25.0 mg/kg/injection, schedule: Q04DX003 (ip), vehicle: saline
[2] = endpoint: mean survival time, dose: 100.0 mg/kg/injection, schedule: Q04DX003 (ip), vehicle: saline with Tween-80
[3] = endpoint: mean survival time, dose: 200.0 mg/kg/injection, schedule: Q04DX003 (ip), vehicle: saline with Tween-80
[4] = endpoint: mean survival time, dose: 400.0 mg/kg/injection, schedule: Q04DX003 (ip), vehicle: saline with Tween-80
[5] = endpoint: mean survival time, dose: 100.0 mg/kg/injection, schedule: Q04DX002 (ip), vehicle: saline with Tween-80
[6] = endpoint: mean survival time, dose: 200.0 mg/kg/injection, schedule: Q04DX002 (ip), vehicle: saline with Tween-80
[7] = endpoint: mean survival time, dose: 100.0 mg/kg/injection, schedule: Q04DX003 (ip), vehicle: saline
[8] = endpoint: mean survival time, dose: 200.0 mg/kg/injection, schedule: Q04DX003 (ip), vehicle: saline
[9] = endpoint: mean survival time, dose: 400.0 mg/kg/injection, schedule: Q04DX003 (ip), vehicle: saline
[10] = endpoint: mean survival time, dose: 100.0 mg/kg/injection, schedule: Q01DX009 (ip), vehicle: saline with Tween-80
[11] = endpoint: mean survival time, dose: 200.0 mg/kg/injection, schedule: Q01DX009 (ip), vehicle: saline with Tween-80
[12] = endpoint: mean survival time, dose: 50.0 mg/kg/injection, schedule: Q01DX009 (ip), vehicle: saline with Tween-80

Measured: T/C

N#C[SH2+].N#C[SH2+].N#C[SH2+].N#C[SH2+].[Cu+2].c1ccc(C[P+](c2ccccc2)(c2ccccc2)c2ccccc2)cc1
inactive: endpoint: mean survival time, dose: 6.0 mg/kg/injection, schedule: Q04DX003 (ip), vehicle: saline 91 % of control | endpoint: mean survival time, dose: 12.0 mg/kg/injection, schedule: Q04DX003 (ip), vehicle: saline 89 % of control | [1] 96 % of control

CC(C)(C)NC(=O)C1C2CCC(C2)C1C(=O)NC(C)(C)C (stereo not given)
inactive: [2] 98 % of control | [3] 102 % of control | [4] 98 % of control

O=S1(=O)CCCC1C(O)c1ccccc1 (stereo not given)
inactive: endpoint: mean survival time, dose: 100.0 mg/kg/injection, schedule: Q04DX003 (ip), vehicle: other 100 % of control | endpoint: mean survival time, dose: 200.0 mg/kg/injection, schedule: Q04DX003 (ip), vehicle: other 95 % of control | endpoint: mean survival time, dose: 400.0 mg/kg/injection, schedule: Q04DX003 (ip), vehicle: other 95 % of control

O=C(O)c1ccccc1C(=O)Nc1cccc(Cl)c1
inactive: endpoint: mean survival time, dose: 100.0 mg/kg/injection, schedule: Q04DX003 (ip), vehicle: Klucel (hydroxypropylcellulose) (HPC) 110 % of control | endpoint: mean survival time, dose: 200.0 mg/kg/injection, schedule: Q04DX003 (ip), vehicle: Klucel (hydroxypropylcellulose) (HPC) 93 % of control | endpoint: mean survival time, dose: 400.0 mg/kg/injection, schedule: Q04DX003 (ip), vehicle: Klucel (hydroxypropylcellulose) (HPC) 98 % of control

C=C1C(O)C2(O)OCC34C(CC5C(C)=CC(=O)C(O)C5(C)C23)OC(=O)C(OC(=O)C/C=C(\C)CCCCC)C14 (stereo not given)
inactive: endpoint: median survival time, dose: 1.0 mg/kg/injection, schedule: Q01DX005 (ip), vehicle: saline + alcohol 109 % of control | endpoint: median survival time, dose: 2.0 mg/kg/injection, schedule: Q01DX005 (ip), vehicle: saline + alcohol 118 % of control | endpoint: median survival time, dose: 8.0 mg/kg/injection, schedule: Q01DX005 (ip), vehicle: saline + alcohol 121 % of control

NNC(=O)c1ccc([N+](=O)[O-])o1
inactive: endpoint: mean survival time, dose: 37.5 mg/kg/injection, schedule: Q01DX009 (ip), vehicle: saline with Tween-80 97 % of control | [2] 110 % of control

O=[N+]([O-])c1ccccc1-c1nn(-c2ccccc2)c2ccccc12
inactive: endpoint: mean survival time, dose: 12.5 mg/kg/injection, schedule: Q04DX002 (ip), vehicle: saline with Tween-80 102 % of control | endpoint: mean survival time, dose: 25.0 mg/kg/injection, schedule: Q04DX002 (ip), vehicle: saline with Tween-80 105 % of control | endpoint: mean survival time, dose: 50.0 mg/kg/injection, schedule: Q04DX002 (ip), vehicle: saline with Tween-80 90 % of control

C[C@H](C[P+](c1ccccc1)(c1ccccc1)c1ccccc1)[C@](OC(=O)c1ccccc1)(C(=O)c1ccccc1)c1ccccc1
inactive: endpoint: mean survival time, dose: 1.25 mg/kg/injection, schedule: Q01DX009 (ip), vehicle: saline with Tween-80 101 % of control | endpoint: mean survival time, dose: 2.5 mg/kg/injection, schedule: Q01DX009 (ip), vehicle: saline with Tween-80 98 % of control | endpoint: mean survival time, dose: 5.0 mg/kg/injection, schedule: Q01DX001 (ip), vehicle: saline with Tween-80 103 % of control | endpoint: mean survival time, dose: 5.0 mg/kg/injection, schedule: Q01DX009 (ip), vehicle: saline with Tween-80 98 % of control

Cc1onc(-c2ccccc2)c1C1=N/C(=C\c2ccc(N(C)C)cc2)C(=O)O1
inactive: [5] 94 % of control | [6] 113 % of control | endpoint: mean survival time, dose: 400.0 mg/kg/injection, schedule: Q04DX002 (ip), vehicle: saline with Tween-80 90 % of control

Brc1c(NC2=NCCN2)ccc2nccnc12
inactive: endpoint: median survival time, dose: 1.56 mg/kg/injection, schedule: Q01DX009 (ip), vehicle: saline 102 % of control | endpoint: median survival time, dose: 3.12 mg/kg/injection, schedule: Q01DX009 (ip), vehicle: saline 96 % of control and 111 % of control | endpoint: median survival time, dose: 6.25 mg/kg/injection, schedule: Q01DX009 (ip), vehicle: saline 115 % of control and 119 % of control and 109 % of control | endpoint: median survival time, dose: 100.0 mg/kg/injection, schedule: Q01DX009 (ip), vehicle: saline 118 % of control

CC(CN)OCc1ccccc1 (stereo not given)
inactive: [1] 98 % of control | endpoint: mean survival time, dose: 50.0 mg/kg/injection, schedule: Q04DX003 (ip), vehicle: saline 101 % of control | [7] 101 % of control

CN1C(=S)[N+](C)(C)N=C1[O-]
inactive: endpoint: mean survival time, dose: 50.0 mg/kg/injection, schedule: Q01DX009 (ip), vehicle: saline 107 % of control | endpoint: mean survival time, dose: 100.0 mg/kg/injection, schedule: Q01DX009 (ip), vehicle: saline 108 % of control | [7] 100 % of control | endpoint: mean survival time, dose: 200.0 mg/kg/injection, schedule: Q01DX009 (ip), vehicle: saline 113 % of control | [8] 105 % of control | [9] 101 % of control

CCCCCCCCCCCCCCCCCCOc1ccc(Cl)cc1
inactive: [5] 90 % of control | [6] 93 % of control

CC(=O)NC(C)(C)C
inactive: [2] 98 % of control | [3] 106 % of control | [4] 104 % of control

CCCCCCCCCCCCCCCCCC[Se]CCCCCCCCCCCCCCCCCC
inactive: [10] 89 % of control | [11] 91 % of control | endpoint: mean survival time, dose: 400.0 mg/kg/injection, schedule: Q01DX009 (ip), vehicle: saline with Tween-80 95 % of control

CCC(=O)C(CC)(c1ccc(OC(C)=O)cc1)c1ccc(OC(C)=O)cc1
inactive: [7] 94 % of control | [8] 96 % of control | [9] 96 % of control

Oc1cc(O)cc(/C=C/c2ccc(O)c(O)c2)c1
inactive: endpoint: median survival time, dose: 6.25 mg/kg/injection, schedule: Q01DX009 (ip), vehicle: DMSO 103 % of control | endpoint: median survival time, dose: 12.5 mg/kg/injection, schedule: Q01DX009 (ip), vehicle: DMSO 109 % of control | endpoint: median survival time, dose: 25.0 mg/kg/injection, schedule: Q01DX009 (ip), vehicle: DMSO 108 % of control and 109 % of control | endpoint: median survival time, dose: 50.0 mg/kg/injection, schedule: Q01DX009 (ip), vehicle: DMSO 108 % of control and 109 % of control | endpoint: median survival time, dose: 100.0 mg/kg/injection, schedule: Q01DX009 (ip), vehicle: DMSO 109 % of control

COC(=O)c1ccc(OC)c2nc3c(C=O)c(OC)cc(OC)c3nc12
inactive: endpoint: mean survival time, dose: 5.3 mg/kg/injection, schedule: Q01DX009 (ip), vehicle: saline with Tween-80 94 % of control | endpoint: mean survival time, dose: 8.0 mg/kg/injection, schedule: Q01DX009 (ip), vehicle: saline with Tween-80 92 % of control | endpoint: mean survival time, dose: 12.0 mg/kg/injection, schedule: Q01DX009 (ip), vehicle: saline with Tween-80 94 % of control | endpoint: mean survival time, dose: 18.0 mg/kg/injection, schedule: Q01DX009 (ip), vehicle: saline with Tween-80 97 % of control

NCc1cn(C2OC(CO)C(O)C2O)c2ncnc(N)c12 (stereo not given)
inactive: endpoint: mean survival time, dose: 3.13 mg/kg/injection, schedule: Q01DX005 (ip), vehicle: water 118 % of control | endpoint: mean survival time, dose: 6.25 mg/kg/injection, schedule: Q01DX005 (ip), vehicle: water 95 % of control

Clc1ccc(C2(c3ccncc3)OCCO2)cc1
inactive: [7] 101 % of control | [8] 101 % of control

C(=C\CN(Cc1ccccc1)Cc1ccccc1)/CN(Cc1ccccc1)Cc1ccccc1
inactive: endpoint: mean survival time, dose: 100.0 mg/kg/injection, schedule: Q01DX009 (ip), vehicle: Klucel (hydroxypropylcellulose) (HPC) 95 % of control | endpoint: mean survival time, dose: 200.0 mg/kg/injection, schedule: Q01DX009 (ip), vehicle: Klucel (hydroxypropylcellulose) (HPC) 97 % of control

Cc1ccc(NC(=O)Oc2ccc(C(C)(C)C)cc2Br)c(C)c1
inactive: [12] 101 % of control | [10] 96 % of control | [11] 116 % of control

COc1ccc2c(Cc3ccc(O)cc3)cncc2c1O
inactive: endpoint: mean survival time, dose: 75.0 mg/kg/injection, schedule: Q01DX001 (ip), vehicle: saline 100 % of control | endpoint: mean survival time, dose: 150.0 mg/kg/injection, schedule: Q01DX001 (ip), vehicle: saline 106 % of control | endpoint: mean survival time, dose: 300.0 mg/kg/injection, schedule: Q01DX001 (ip), vehicle: saline 98 % of control

COc1cc(Cl)ccc1NC(=O)Nc1ccc(C(=O)O)cc1
inactive: [12] 95 % of control | [10] 95 % of control | [11] 91 % of control
